# According to PMC8539420, “Discovery of a Potent and Selective JNK3 Inhibitor with Neuroprotective Effect Against Amyloid β-Induced Neurotoxicity in Primary Rat Neurons” (International Journal of Molecular Sciences, 2021):
# How the values were obtained:
# JNK3(h) = biological target: T1, JNK3(h) (Homo sapiens, UniProt P53779); assay: Kinase HotSpot radiometric assay, JNK3; assay type: biochemical
# T1 construct: purchased Reaction Biology Corp
# JNK2 = biological target: T2, JNK2 (Homo sapiens, UniProt P45984); assay: Kinase HotSpot assay, JNK2; assay type: biochemical
# T2 construct: purchased Reaction Biology Corp
# T2 sequence (P45984 whole entry): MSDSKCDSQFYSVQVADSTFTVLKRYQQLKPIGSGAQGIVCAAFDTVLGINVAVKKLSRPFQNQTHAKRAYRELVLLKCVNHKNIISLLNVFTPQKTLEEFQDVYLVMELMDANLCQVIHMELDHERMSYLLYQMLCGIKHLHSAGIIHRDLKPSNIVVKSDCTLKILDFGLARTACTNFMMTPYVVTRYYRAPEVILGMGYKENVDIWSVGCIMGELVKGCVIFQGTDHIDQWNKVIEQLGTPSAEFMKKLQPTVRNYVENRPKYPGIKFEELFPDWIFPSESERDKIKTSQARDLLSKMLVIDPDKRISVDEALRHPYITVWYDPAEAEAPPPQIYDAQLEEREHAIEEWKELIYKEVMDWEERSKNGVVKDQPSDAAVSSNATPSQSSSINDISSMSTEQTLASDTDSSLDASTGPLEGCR
# GSK3β = biological target: T3, GSK3β (Homo sapiens, UniProt P49841); assay: Kinase HotSpot assay, GSK3β; assay type: biochemical
# T3 construct: purchased Reaction Biology Corp
# T3 sequence (P49841 whole entry): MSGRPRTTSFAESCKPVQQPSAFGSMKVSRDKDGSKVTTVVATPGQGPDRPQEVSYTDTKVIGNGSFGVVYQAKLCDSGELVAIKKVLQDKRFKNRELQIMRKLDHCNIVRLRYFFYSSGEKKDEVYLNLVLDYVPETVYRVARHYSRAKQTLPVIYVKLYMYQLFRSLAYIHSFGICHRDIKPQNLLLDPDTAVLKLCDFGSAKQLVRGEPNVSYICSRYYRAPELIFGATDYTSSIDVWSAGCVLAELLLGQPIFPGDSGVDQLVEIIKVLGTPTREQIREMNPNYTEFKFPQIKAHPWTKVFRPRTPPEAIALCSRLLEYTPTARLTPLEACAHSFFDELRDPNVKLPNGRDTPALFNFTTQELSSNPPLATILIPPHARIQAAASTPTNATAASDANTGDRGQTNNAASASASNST
# [1] = system: primary rat cortical neuron; assay: Cell viability (MTT) from Aβ-induced neurotoxicity; assay type: cell-based; conditions: for Neuroprotection: Aβ-induced primary rat cortical neuronal death
# Source text: To establish whether the derived selective JNK3 inhibitor actually has the ability to protect neurons from amyloid β-induced neuronal cell death, which is known as the pathogenesis of Alzheimer’s disease, we performed cytotoxicity experiments using Aβ 42, which is known as the most toxic fragment of the amyloid protein. The amyloid-β is known to mainly cause apoptosis during cell death, so it was confirmed whether the derived selective JNK3 inhibitors affect the activation (cleavage) of caspase-3, which are apoptosis-related signaling substances. […] This means that selective JNK3 inhibitors can inhibit apoptosis signaling by amyloid-β in neurons, thereby inhibiting apoptosis. Additionally, we confirmed that JNK activation was induced by amyloid-β in neurons, and the derived selective JNK3 inhibitors could inhibit JNK activation induced by amyloid-β. […] Then, the experiments for JNK3 inhibitors’ effect on the viability of neurons were conducted for five 6-dihydroxy benzimidazoles (35a-35e) by comparing it with previously published resveratrol as a positive control. On the 5th day of rat primary cortical neuron differentiation, each compound was pre-treated for 90 min and then treated with 10 μM Aβ 42 (HIFP-treated) for 24 or 48 h, and cell viability was measured by MTT assay.
# In initial experiments, rat hippocampal cells grown in serum-free neurobasal media containing B27 supplements at day 6 were treated with different concentrations of Aβ1–42 or Aβ1–40 for 24 h and then the cell viability was measured by colorimetric MTT assay. Aggregated Aβ1–42 and Aβ1–40 caused up to 40–60% cell death at concentrations ranging from […]. […] Resveratrol was active against various amyloid-related peptides including Aβ1–42, the most neurotoxic amyloid derivative present in the AD brain. […] Primary Rat Cortex Neurons, Sprague Dawley (Gibco, A36512, Fisher Scientific, Göteborg, Sweden), were cultured in Neurobasal™ Plus culture medium (Gibco, A3582901 Fisher Scientific, Göteborg, Sweden), supplemented with B-27™ Supplement (Gibco, A3582801 Fisher Scientific, Göteborg, Sweden) and 0.5 mM GlutaMAX™ Supplement (Gibco, 35050061 Fisher Scientific, Göteborg, Sweden) at 37 °C in a humidified 5% CO2 atmosphere. We plated –2 × 10^5 live cells per well in a poly-D-lysine/laminin coated 24-well plate. For neural differentiation, half of the medium was replaced with fresh complete medium every third day. On day 6, we removed half the volume of media from the culture plate, added an equal amount of complete culture media containing test compounds or vehicle to each well, and incubated them for 90 min at 37 °C and 5% CO2. Immediately prior to use, amyloid β-Protein (1–42) (HFIP-treated) (Bachem, 4090148.0100) was dissolved in 1% NH4OH, further diluted with culture medium, and added into the plates to a final concentration of 10 μM. Cells were incubated for 24 h with vehicle control or test compounds in the presence or absence of Aβ42. Cell viability was measured using the MTT [3-(4, 5-dimethylthiazol-2-yl)-2,5-diphenyltetrazolium bromide] assay. MTT solution was added into each well at a final concentration of 0.5 mg/mL, and cells were incubated at 37 °C for 4 h. The absorbance was detected at 540 nm (reference 650 nm) with a microplate reader. All results were normalized to OD values measured from the vehicle control (DMSO). […]
# Primary Rat Cortex Neurons, Sprague Dawley (Gibco, A36512) were cultured in Neurobasal™ Plus culture medium (Gibco, A3582901), supplemented with B-27™ Supplement (Gibco, A3582801) and 0.5mM GlutaMAX™ Supplement (Gibco, 35050061) at 37 °C in a humidified 5% CO2 atmosphere. Plate ~2 × 10^5 live cells per well in a poly-D-lysine/laminin coated 24-well plate. For neural differentiation, half of the medium was replaced with fresh complete medium every third day. On day 6, remove half the volume of media from the culture plate and add an equal amount of complete culture media […]
# ALK = biological target: T4, ALK (Homo sapiens, UniProt Q9UM73); assay: Kinase panel screening 1 μM; assay type: biochemical; conditions: read-out: enzymatic inhibition ALK
# T4 construct: purchased Reaction Biology Corp. (Kinase HotSpot)
# AXL = biological target: T5, AXL (Homo sapiens, UniProt P30530); assay: Kinase panel screening 1 μM; assay type: biochemical; conditions: read-out: enzymatic inhibition AXL
# T5 construct: purchased Reaction Biology Corp. (Kinase HotSpot)
# T5 sequence (P30530 26-894): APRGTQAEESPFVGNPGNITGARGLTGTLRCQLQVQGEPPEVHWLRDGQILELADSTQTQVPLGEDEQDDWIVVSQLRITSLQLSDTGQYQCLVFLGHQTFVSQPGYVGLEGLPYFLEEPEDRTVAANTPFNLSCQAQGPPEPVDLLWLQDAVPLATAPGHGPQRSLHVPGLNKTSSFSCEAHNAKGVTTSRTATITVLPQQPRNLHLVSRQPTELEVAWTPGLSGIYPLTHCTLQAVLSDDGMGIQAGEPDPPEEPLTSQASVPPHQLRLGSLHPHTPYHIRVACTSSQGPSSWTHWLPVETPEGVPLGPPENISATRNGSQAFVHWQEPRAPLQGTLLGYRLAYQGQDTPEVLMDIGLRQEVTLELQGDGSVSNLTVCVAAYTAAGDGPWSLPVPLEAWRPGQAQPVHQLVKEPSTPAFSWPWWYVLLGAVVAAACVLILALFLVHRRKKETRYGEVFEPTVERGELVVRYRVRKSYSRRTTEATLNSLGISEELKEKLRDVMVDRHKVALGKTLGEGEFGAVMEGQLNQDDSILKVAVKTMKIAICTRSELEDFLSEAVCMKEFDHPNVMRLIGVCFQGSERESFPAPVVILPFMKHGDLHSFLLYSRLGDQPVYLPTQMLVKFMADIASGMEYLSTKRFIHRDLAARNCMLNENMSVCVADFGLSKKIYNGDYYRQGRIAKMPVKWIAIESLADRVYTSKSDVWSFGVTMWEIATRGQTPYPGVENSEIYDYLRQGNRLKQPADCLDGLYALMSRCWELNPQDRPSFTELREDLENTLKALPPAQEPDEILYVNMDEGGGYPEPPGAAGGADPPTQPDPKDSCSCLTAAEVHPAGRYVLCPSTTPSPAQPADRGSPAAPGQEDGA
# AXL (R499C) = biological target: T6, AXL (R499C) (Homo sapiens, UniProt P30530, R499C); assay: Kinase panel screening 1 μM; assay type: biochemical; conditions: read-out: enzymatic inhibition AXL (R499C)
# T6 construct: purchased Reaction Biology Corp. (Kinase HotSpot)
# T6 sequence (P30530 26-894 R499C): as the sequence (P30530 26-894) above, with R474C counted along it
# BTK = biological target: T7, BTK (Homo sapiens, UniProt Q06187); assay: Kinase panel screening 1 μM; assay type: biochemical; conditions: read-out: enzymatic inhibition BTK
# T7 construct: purchased Reaction Biology Corp. (Kinase HotSpot)
# T7 sequence (Q06187 whole entry): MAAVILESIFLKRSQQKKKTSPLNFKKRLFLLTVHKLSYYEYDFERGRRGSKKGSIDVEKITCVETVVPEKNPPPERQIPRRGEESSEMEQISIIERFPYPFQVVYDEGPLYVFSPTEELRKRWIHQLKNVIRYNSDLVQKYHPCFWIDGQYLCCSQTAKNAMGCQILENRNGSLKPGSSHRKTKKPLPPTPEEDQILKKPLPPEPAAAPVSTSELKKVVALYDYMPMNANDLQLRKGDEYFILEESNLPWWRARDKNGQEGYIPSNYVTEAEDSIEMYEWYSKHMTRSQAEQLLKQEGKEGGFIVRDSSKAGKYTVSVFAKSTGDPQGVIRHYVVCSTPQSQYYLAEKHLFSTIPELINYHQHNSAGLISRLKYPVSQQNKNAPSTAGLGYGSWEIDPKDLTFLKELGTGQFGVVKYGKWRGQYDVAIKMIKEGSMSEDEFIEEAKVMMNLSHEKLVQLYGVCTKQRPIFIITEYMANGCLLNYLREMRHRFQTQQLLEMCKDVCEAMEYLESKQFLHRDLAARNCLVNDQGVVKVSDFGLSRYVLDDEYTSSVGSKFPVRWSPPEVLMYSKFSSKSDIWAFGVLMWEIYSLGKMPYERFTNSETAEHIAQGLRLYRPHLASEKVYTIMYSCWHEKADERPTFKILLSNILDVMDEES
# CDK1/cyclin A = biological target: T8, CDK1/cyclin A (Homo sapiens, UniProt P06493); assay: Kinase panel screening 1 μM; assay type: biochemical; conditions: read-out: enzymatic inhibition CDK1/cyclin A
# T8 construct: purchased Reaction Biology Corp. (Kinase HotSpot)
# T8 sequence (P06493 whole entry): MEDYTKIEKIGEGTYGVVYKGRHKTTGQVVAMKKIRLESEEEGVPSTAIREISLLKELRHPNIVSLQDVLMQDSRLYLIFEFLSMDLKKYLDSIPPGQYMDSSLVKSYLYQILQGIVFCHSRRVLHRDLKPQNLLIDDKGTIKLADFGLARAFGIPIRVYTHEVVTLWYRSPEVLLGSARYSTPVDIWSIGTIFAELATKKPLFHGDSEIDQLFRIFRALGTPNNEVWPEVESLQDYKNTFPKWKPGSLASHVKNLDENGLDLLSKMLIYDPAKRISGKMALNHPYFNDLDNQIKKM
# T8 sequence (P20248 whole entry partner): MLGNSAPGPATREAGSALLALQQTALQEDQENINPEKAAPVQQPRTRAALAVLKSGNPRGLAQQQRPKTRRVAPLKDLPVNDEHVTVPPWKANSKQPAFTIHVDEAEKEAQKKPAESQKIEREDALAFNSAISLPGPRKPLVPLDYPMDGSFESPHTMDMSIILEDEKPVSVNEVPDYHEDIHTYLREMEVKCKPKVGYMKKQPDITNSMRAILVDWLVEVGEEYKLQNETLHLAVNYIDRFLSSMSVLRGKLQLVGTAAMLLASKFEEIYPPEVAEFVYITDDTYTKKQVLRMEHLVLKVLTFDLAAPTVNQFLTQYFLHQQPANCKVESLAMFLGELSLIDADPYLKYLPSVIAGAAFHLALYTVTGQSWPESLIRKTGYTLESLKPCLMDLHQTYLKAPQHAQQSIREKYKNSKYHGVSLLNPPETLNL
# EGFR = biological target: T9, EGFR (Homo sapiens, UniProt P00533); assay: Kinase panel screening 1 μM; assay type: biochemical; conditions: read-out: enzymatic inhibition EGFR
# T9 construct: purchased Reaction Biology Corp. (Kinase HotSpot)
# KDR/VEGFR2 = biological target: T10, KDR/VEGFR2 (Homo sapiens, UniProt P35968); assay: Kinase panel screening 1 μM; assay type: biochemical; conditions: read-out: enzymatic inhibition KDR/VEGFR2
# T10 construct: purchased Reaction Biology Corp. (Kinase HotSpot)
# LYN = biological target: T11, LYN (Homo sapiens, UniProt P07948); assay: Kinase panel screening 1 μM; assay type: biochemical; conditions: read-out: enzymatic inhibition LYN
# T11 construct: purchased Reaction Biology Corp. (Kinase HotSpot)
# T11 sequence (P07948 whole entry): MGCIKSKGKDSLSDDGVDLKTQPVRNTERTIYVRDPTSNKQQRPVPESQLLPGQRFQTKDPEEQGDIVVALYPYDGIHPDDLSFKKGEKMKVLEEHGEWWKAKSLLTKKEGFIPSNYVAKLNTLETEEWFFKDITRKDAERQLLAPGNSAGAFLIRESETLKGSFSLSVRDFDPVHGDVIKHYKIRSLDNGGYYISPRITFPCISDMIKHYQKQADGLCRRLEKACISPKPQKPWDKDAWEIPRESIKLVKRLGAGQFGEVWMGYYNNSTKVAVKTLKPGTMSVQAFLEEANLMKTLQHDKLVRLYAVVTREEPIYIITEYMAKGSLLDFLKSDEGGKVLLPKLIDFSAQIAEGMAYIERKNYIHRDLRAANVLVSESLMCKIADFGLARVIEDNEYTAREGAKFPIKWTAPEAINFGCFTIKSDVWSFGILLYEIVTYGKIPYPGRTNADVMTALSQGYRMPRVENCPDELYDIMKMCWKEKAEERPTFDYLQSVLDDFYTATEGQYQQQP
# PDK1/PDHK1 = biological target: T12, PDK1/PDHK1 (Homo sapiens, UniProt Q15118); assay: Kinase panel screening 1 μM; assay type: biochemical; conditions: read-out: enzymatic inhibition PDK1/PDHK1
# T12 construct: purchased Reaction Biology Corp. (Kinase HotSpot)
# PKA = biological target: T13, PKA (Homo sapiens, UniProt P17612); assay: Kinase panel screening 1 μM; assay type: biochemical; conditions: read-out: enzymatic inhibition PKA
# T13 construct: purchased Reaction Biology Corp. (Kinase HotSpot)
# PLK1 = biological target: T14, PLK1 (Homo sapiens, UniProt P53350); assay: Kinase panel screening 1 μM; assay type: biochemical; conditions: read-out: enzymatic inhibition PLK1
# T14 construct: purchased Reaction Biology Corp. (Kinase HotSpot)
# SYK = biological target: T15, SYK (Homo sapiens, UniProt P43405); assay: Kinase panel screening 1 μM; assay type: biochemical; conditions: read-out: enzymatic inhibition SYK
# T15 construct: purchased Reaction Biology Corp. (Kinase HotSpot)
# TRKC = biological target: T16, TRKC (Homo sapiens, UniProt Q16288); assay: Kinase panel screening 1 μM; assay type: biochemical; conditions: read-out: enzymatic inhibition TRKC
# T16 construct: purchased Reaction Biology Corp. (Kinase HotSpot)
# T16 sequence (Q16288 32-839): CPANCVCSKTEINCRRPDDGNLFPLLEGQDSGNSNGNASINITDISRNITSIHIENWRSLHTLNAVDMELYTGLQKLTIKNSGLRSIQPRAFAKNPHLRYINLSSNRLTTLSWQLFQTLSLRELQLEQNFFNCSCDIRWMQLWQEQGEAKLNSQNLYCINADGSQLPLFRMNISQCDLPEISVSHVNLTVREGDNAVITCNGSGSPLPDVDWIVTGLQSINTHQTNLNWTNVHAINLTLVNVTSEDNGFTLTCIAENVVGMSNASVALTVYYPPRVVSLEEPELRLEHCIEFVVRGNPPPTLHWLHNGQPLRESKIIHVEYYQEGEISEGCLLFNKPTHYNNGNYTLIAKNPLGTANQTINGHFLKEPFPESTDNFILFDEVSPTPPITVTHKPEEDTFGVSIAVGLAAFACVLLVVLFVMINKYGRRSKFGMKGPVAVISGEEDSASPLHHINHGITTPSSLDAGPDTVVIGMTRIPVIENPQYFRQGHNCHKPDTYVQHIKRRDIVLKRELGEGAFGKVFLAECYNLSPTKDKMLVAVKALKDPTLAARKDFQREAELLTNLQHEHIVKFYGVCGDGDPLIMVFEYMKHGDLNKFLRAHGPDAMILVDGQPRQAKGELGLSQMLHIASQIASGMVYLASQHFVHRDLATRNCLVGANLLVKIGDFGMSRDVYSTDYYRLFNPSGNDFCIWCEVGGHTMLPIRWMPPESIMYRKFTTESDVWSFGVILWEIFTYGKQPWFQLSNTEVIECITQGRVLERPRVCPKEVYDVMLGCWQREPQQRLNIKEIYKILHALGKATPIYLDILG
# T1 sequence (P53779 whole entry): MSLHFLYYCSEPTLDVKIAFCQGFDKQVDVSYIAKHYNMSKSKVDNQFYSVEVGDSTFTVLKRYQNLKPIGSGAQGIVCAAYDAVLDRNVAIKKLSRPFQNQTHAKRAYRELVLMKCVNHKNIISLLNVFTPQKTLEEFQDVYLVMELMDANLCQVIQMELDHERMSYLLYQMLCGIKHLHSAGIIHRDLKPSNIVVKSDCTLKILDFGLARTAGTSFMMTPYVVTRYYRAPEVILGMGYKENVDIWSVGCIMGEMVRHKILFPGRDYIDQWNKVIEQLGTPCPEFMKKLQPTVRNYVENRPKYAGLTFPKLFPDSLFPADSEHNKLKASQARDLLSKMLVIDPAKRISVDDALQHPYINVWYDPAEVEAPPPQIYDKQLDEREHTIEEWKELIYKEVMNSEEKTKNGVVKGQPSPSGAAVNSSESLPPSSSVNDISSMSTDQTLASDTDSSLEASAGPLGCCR
structure (smiles),measurement,setting,value
"O=C(C1CC1)N1CCC[C@H](Nc2nccc(-n3c(-c4ccc5c(c4)OCCO5)nc4cc(O)c(O)cc43)n2)C1 [35b, (S)-Cyclopropyl(3-((4-(2-(2,3-dihydrobenzo[b][1,4]dioxin-6-yl)-5,6-dihydroxy-1H-benzo[d]imidazol-1-yl)pyrimidin-2-yl)amino)piperidin-1-yl)methanone]",inhibition at 1 µM,"JNK3(h); 1 μM, read-out: enzymatic inhibition JNK3",90%
same,IC50,"JNK3(h); ATP 10 μM, substrate ATF2 5 μM, read-out: JNK3 inhibitory activity IC50",9.7 nM
same,IC50,JNK2,898 nM
same,inhibition at 1 µM,"JNK2; 1 μM, read-out: enzymatic inhibition JNK2",38%
same,IC50,GSK3β,5.85 µM
same,inhibition at 1 µM,"GSK3β; 1 μM, read-out: enzymatic inhibition GSK3b",85.5%
same,Selectivity/JNK3,GSK3β; GSK3β IC50 in comparison with JNK3,>600 fold
same,Neuroprotection,[1],95.7%
same,Neuroprotection,[1]; listed as Present report,> 95.7 ± 2.9%
same,"Cell viability, Mean","[1]; pre-treated 90 min, then 10 μM Aβ42, MTT, normalized to vehicle control (DMSO), compound concentration not given",95.7 ± 2.9%
same,inhibition at 1 µM,ALK,12.5%
same,inhibition at 1 µM,AXL,6.37%
same,inhibition at 1 µM,AXL (R499C),0.64%
same,inhibition at 1 µM,BTK,9.53%
same,inhibition at 1 µM,CDK1/cyclin A,0%
same,inhibition at 1 µM,EGFR,0%
same,inhibition at 1 µM,KDR/VEGFR2,5.49%
same,inhibition at 1 µM,LYN,10.8%
same,inhibition at 1 µM,PDK1/PDHK1,0%
same,inhibition at 1 µM,PKA,0%
same,inhibition at 1 µM,PLK1,0%
same,inhibition at 1 µM,SYK,1.73%
same,inhibition at 1 µM,TRKC,8.78%
